From paper PMC5586502 (Bioorganic & medicinal chemistry letters, 2017) come the findings set out here.

Where only a bound is given, the exact number is not on record here.

The subject of this experiment is COX-1/2 (mixed COX-1 and COX-2). In words: COX. The experiment is classed as biochemical, ovine/human. As to conditions: read-out: IC50 against COX-1/2; suggested from ~37% inhibition at 100 µM.

Consider `COc1ccc(N(Nc2ccc(Br)cc2)c2ccccc2N(Nc2ccc(Br)cc2)c2ccccc2OC)cc1` [Compound 6], for which the IC50 was > 100 µM.
